Experimental data: US20060122153A1, “Antineoplastic ether lipid compounds with modifications at the sn-2 carbon” (priority 2003, published 2006)
Where “and” joins values, the source holds several entries; their conditions need not be identical. Equal values may be shown once.

How the values were obtained:
[1] = tested on: washed human red blood cells; assay: Hemolysis assay with washed human red blood cells; format: cell-based; details: washed human RBCs; for H10: concentration producing 10% hemolysis; for H50: concentration producing 50% hemolysis
Protocol: The blood was transferred from 1 EDTA tube to a 50 mL conical tissue culture tube and the volume was brought up to 50 mL with PBS.
The blood was centrifuged for 10 minutes at 1500 RPM. The supernatant was removed and the blood was resuspended up to 50 mL with PBS. Next the blood was centrifuged for 10 minutes at 1500 RPM.
The supernatant was removed, and 2.0 mL of packed red blood cells was carefully transferred, using positive displacement pipet, into a fresh conical tissue culture tube. Next, 48 mL PBS was added to achieve a 4% washed RBC solution.
Next, 25, 50, 100 and 200 uM stock solutions of test sample in phosphate buffered saline (PBS) as follows:
Next, 0.5 mL of 4% washed RBC was added to 0.5 mL test sample dilutions (in duplicate). The final concentration of test sample was 50% of working stock solution.
The samples were capped or sealed with Parafilm and the samples were gently mixed. […] The samples were centrifuged for 10 minutes at 1500 RPM. […] Absorbance was measured at 550 nm vs. a water blank. Next, H10 and H50 were determined by graphing Absorbance vs. Test Sample Concentration.

UACC62 = assay: NCI growth inhibition screen, melanoma panel; format: cell-based, human; design: key: = means equivalent activity; + means that it appears to be significantly better (i.e., by ˜2x); < means it appears to be less active than ET18OCH3 (˜2x); a combination like =/+ or </+ means that activity is dependent upon the isomer; a combination like =/+ or </+ means that activity is dependent upon the isomer; details: from GI50s
Protocol: (§1) Candidates deemed suitable for in vivo testing were then synthesized in large scale quantities and some of this material was sent to the NCI's Developmental Therapeutics Program for a battery of growth inhibitory studies against various human tumor cell lines (60 cell lines, 9 different panels). The remainder of the material was used to assess in vivo efficacy using murine tumor models. Additionally, studies were conducted on the lead candidates to discern mechanism of action with particular emphasis on these agents apoptotic ability as measured by caspase 3 activity. The details (materials and methods) for these various assays are described further in the following discussion.
(§2) Ten compounds were also sent to NCI's Drug Discovery Program for screening against numerous human tumor cell lines (9 panels total: renal ovarian, colon, CNS, non-small cell lung, leukemia, breast, melanoma, and prostate). The data are shown in FIGS. 2a-i which also include data regarding D- and L-ET-18-OCH3 (listed as L-EL and D-EL in the figures). Upon examining the data, one is struck by how 1R and 1a′S standout in comparison to the other compounds, especially for the renal, ovarian, colon, and CNS panels.

SK-MEL-5 = assay: NCI growth inhibition screen, melanoma panel; format: cell-based, human; design: key: = means equivalent activity; + means that it appears to be significantly better (i.e., by ˜2x); < means it appears to be less active than ET18OCH3 (˜2x); a combination like =/+ or </+ means that activity is dependent upon the isomer; a combination like =/+ or </+ means that activity is dependent upon the isomer; details: SK-MEL-5, Melanoma; from GI50s
Protocol: as §1, §2

M14 = assay: NCI growth inhibition screen, melanoma panel; format: cell-based, human; design: key: = means equivalent activity; + means that it appears to be significantly better (i.e., by ˜2x); < means it appears to be less active than ET18OCH3 (˜2x); a combination like =/+ or </+ means that activity is dependent upon the isomer; a combination like =/+ or </+ means that activity is dependent upon the isomer; details: from GI50s
Protocol: as §1, §2

LOX IMVI = assay: NCI growth inhibition screen, melanoma panel; format: cell-based, human; design: key: = means equivalent activity; + means that it appears to be significantly better (i.e., by ˜2x); < means it appears to be less active than ET18OCH3 (˜2x); a combination like =/+ or </+ means that activity is dependent upon the isomer; a combination like =/+ or </+ means that activity is dependent upon the isomer; details: from GI50s
Protocol: as §1, §2

[2] = tested on: platelets in dog whole blood; assay: Platelet aggregation in whole blood (Chronolog whole blood aggregometer)
Protocol: Briefly, whole citrated blood is diluted 1:2 with sterile saline and placed in a warm chamber with a mini stir bar. An electronic probe, measuring electrical resistance, is inserted in the sample. The aggregometer is calibrated and the baseline is observed to detect any spontaneous aggregation. The test sample is added and allowed to run for at least 6 minutes. If the sample is an agonist the platelets will start to aggregate and stick to the electronic probe causing resistance across the electrodes to increase. This resistance, in ohms, is measured 6 minutes post addition of sample. The test samples are run at 25, 100, 200, 400 and 800 uM and compared to 100 uM L-ET-18-OCH3.
Collection of Blood Sample for in vitro Platelet Aggregation Testing: Venous blood is collected in 4.5 mL Vacutainer tubes containing 0.129 M sodium citrate using a 21G needle or larger. Blood is immediately mixed by gentle inversion 15-20 times and kept at room temperature. Dilution ratio is 1 to 9 (3.8% citrate solution:blood). One (2.0 mL) Vacutainer tube containing EDTA is also collected for platelet counts. Complete blood counts (CBC) are measured on the CDC Technologies Hemavet 1500 to ensure that the test subject's platelets are within normal range. Amy vials of hemolytic blood or blood containing any clots should be discarded. Platelet aggregation testing must be completed within 3 hours of blood collection. After this time the ability of platelets to aggregate decreases.
Dilutions were prepared in PBS or saline at 40× concentration. (25 uL test sample are added to 1000 uL diluted blood (1:40)).

SMILES	H10 [1]	H50 [1]	Performance as compared to ET-18-O—CH3 (UACC62)	Performance as compared to ET-18-O—CH3 (SK-MEL-5)	Performance as compared to ET-18-O—CH3 (M14)	Performance as compared to ET-18-O—CH3 (LOX IMVI)	Relative Platelet Aggregation (Ohms) ([2]; 25 μM)	Relative Platelet Aggregation (Ohms) ([2]; 100 μM)	Relative Platelet Aggregation (Ohms) ([2]; 200 μM)	Relative Platelet Aggregation (Ohms) ([2]; 400 μM)	Relative Platelet Aggregation (Ohms) ([2]; 800 μM)	platelet aggregation response (in words) [2]
CCCCCCCCCCCCCCCCCCOC[C@@H](COP(=O)([O-])OCC[N+](C)(C)C)OS(C)(=O)=O [1a′S]	16.5 µM	21.5 µM	64	0	0	0	0	0	0	0	0	–
CCCCCCCCCCCCCCCCCCOCC(COP(=O)([O-])OCC[N+](C)(C)C)OS(C)(=O)=O (centres unmarked) [Compound 1aR]	16 µM and 13 µM	21.5 µM and 17 µM	+	=	=	=	0	0	0	0	0	none of the “L” isomer compounds (1cR or 1aR) evoked an aggregatory response
